Test results taken from patent US20160175318A1, “COMPOSITIONS COMPRISING ANTIBACTERIAL AGENT AND TAZOBACTAM” (WOCKHARDT LIMITED, priority 2013, published 2016).
Read-outs that look alike come from different tables or passages of the source.

Assays:
Assay type in all cases: cell-based
[1] = system: E. coli B-89; experiment: Quantitative drug diffusion assay (disc, zone of inhibition, CLSI); parameters: key to Interpretation of zone as per CLSI recommendations: R: Resistant; I: Intermediate; S: Sensitive (Interpretation as per CLSI recommendations, 2010)
Text: (§1) Activity of cefepime in combination with tazobactam and various penicillins in combination with respective ESBL inhibitors was also investigated against highly resistant ESBL strains in quantitative drug diffusion assay performed as per CLSI recommendations (Clinical and Laboratory Standards Institute (CLSI), performance Standards for Antimicrobial Susceptibility Testing, 20th Informational Supplement, M 100-S20, Volume 30, No. 1, 2010).
(§2) In a typical study, overnight grown bacterial cultures after appropriate dilution were seed inoculated in the molten, cooled agar media and plates poured. Antibiotics containing 6 mm diameter discs were place on the top of the agar surface. Zone of inhibition based observation was performed after 16-18 h of incubation at 35±2° C. in ambient air. The overall procedure was performed as per CLSI recommendations (Table 5 and 6). These assays are routinely used in determining possibility of treating a particular infection using antibiotic and/or their combinations. For example, in case of treating an infection caused by E. coli (M138) using Augmentin® [commercially available combination: Amoxicillin (500 mg)+Clavulanic acid (125 mg)], the zone inhibition values need to be in the sensitive (S) range.

[2] = system: E. coli B-123; experiment: as above; parameters: key to Interpretation of zone as per CLSI recommendations: R: Resistant; I: Intermediate; S: Sensitive (Interpretation as per CLSI recommendations, 2010)
Text: as §1, §2

[3] = system: E. coli S-112; experiment: as above; parameters: key to Interpretation of zone as per CLSI recommendations: R: Resistant; I: Intermediate; S: Sensitive (Interpretation as per CLSI recommendations, 2010)
Text: as §1, §2

[4] = system: E. coli M-138; experiment: as above; parameters: key to Interpretation of zone as per CLSI recommendations: R: Resistant; I: Intermediate; S: Sensitive (Interpretation as per CLSI recommendations, 2010)
Text: as §1, §2

[5] = system: E. coli M50; experiment: as above; parameters: key to Interpretation of zone as per CLSI recommendations: R: Resistant; I: Intermediate; S: Sensitive (Interpretation as per CLSI recommendations, 2010)
Text: as §1, §2

[6] = system: E. coli 7MP; experiment: as above; parameters: key to Interpretation of zone as per CLSI recommendations: R: Resistant; I: Intermediate; S: Sensitive (Interpretation as per CLSI recommendations, 2010)
Text: as §1, §2

[7] = system: E. coli B-89; experiment: MIC by agar dilution (CLSI) against highly resistant ESBL strain; conditions: E. coli B-89
Procedure: (§3) The results on activity of cefepime and other cephalosporin antibacterial agents in combination with tazobactam against highly resistant ESBL strains are given Table 1. In a typical study, overnight grown bacterial cultures were diluted appropriately and inoculated on the agar media containing doubling dilutions of the antibiotic. Observation for growth or no growth was performed after 16-20 h of incubation at 35±2° C. in ambient air. The overall procedure was performed as per Clinical and Laboratory Standards Institute (CLSI) recommendations. This experimental was followed for Examples 2-4 and 6 below (Table 2-4 and 7).

[8] = system: E. cloacae M-20; experiment: as above; conditions: E. cloacae M-20
Procedure: as §3

[9] = system: K. pneumoniae M150; experiment: as above; conditions: Klebsiella pneumoniae, M150, K. pneumoniae M150, read-out: MIC
Procedure: as §3

[10] = system: E. coli M50; experiment: as above
Procedure: as §3

[11] = system: E. coli 7MP; experiment: as above; conditions: E. coli 7MP
Procedure: as §3

[12] = ESBL inhibitor 0 mcg (antibiotic alone)
[13] = Table 5, with Clavulanic acid 10 mcg
[14] = Table 6, with Clavulanic acid 10 mcg

## CC1(C)S[C@@H]2[C@H](NC(=O)[C@H](C(=O)O)c3ccsc3)C(=O)N2[C@H]1C(=O)O [Ticarcillin]
[1]; [12]
  Zone of Inhibition: Nil
[1]; Table 5, ESBL inhibitor 0 mcg
  Interpretation of zone as per CLSI recommendations: (R)
[1]; [13]
  Interpretation of zone as per CLSI recommendations: (R)
[1]; Table 6, ESBL inhibitor 0 mcg
  Interpretation of zone as per CLSI recommendations: (R)
[1]; [14]
  Interpretation of zone as per CLSI recommendations: (R)
[1]; with Clavulanic acid 10 mcg
  Zone of Inhibition: 10 mm
[2]; [12]
  Zone of Inhibition: Nil
[2]; Table 5, ESBL inhibitor 0 mcg
  Interpretation of zone as per CLSI recommendations: (R)
[2]; [13]
  Interpretation of zone as per CLSI recommendations: (R)
[2]; Table 6, ESBL inhibitor 0 mcg
  Interpretation of zone as per CLSI recommendations: (R)
[2]; [14]
  Interpretation of zone as per CLSI recommendations: (R)
[2]; with Clavulanic acid 10 mcg
  Zone of Inhibition: 13.5 mm
[3]; [12]
  Zone of Inhibition: Nil
[3]; Table 5, ESBL inhibitor 0 mcg
  Interpretation of zone as per CLSI recommendations: (R)
[3]; [13]
  Interpretation of zone as per CLSI recommendations: (R)
[3]; Table 6, ESBL inhibitor 0 mcg
  Interpretation of zone as per CLSI recommendations: (R)
[3]; [14]
  Interpretation of zone as per CLSI recommendations: (R)
[3]; with Clavulanic acid 10 mcg
  Zone of Inhibition: 10 mm
[4]; [12]
  Zone of Inhibition: Nil
[4]; Table 5, ESBL inhibitor 0 mcg
  Interpretation of zone as per CLSI recommendations: (R)
[4]; [13]
  Interpretation of zone as per CLSI recommendations: (R)
[4]; Table 6, ESBL inhibitor 0 mcg
  Interpretation of zone as per CLSI recommendations: (R)
[4]; [14]
  Interpretation of zone as per CLSI recommendations: (R)
[4]; with Clavulanic acid 10 mcg
  Zone of Inhibition: 10 mm
[5]; [12]
  Zone of Inhibition: 9 mm
[5]; Table 5, ESBL inhibitor 0 mcg
  Interpretation of zone as per CLSI recommendations: (R)
[5]; [13]
  Interpretation of zone as per CLSI recommendations: (R)
[5]; Table 6, ESBL inhibitor 0 mcg
  Interpretation of zone as per CLSI recommendations: (R)
[5]; [14]
  Interpretation of zone as per CLSI recommendations: (R)
[5]; with Clavulanic acid 10 mcg
  Zone of Inhibition: 11.5 mm
[6]; [12]
  Zone of Inhibition: Nil
[6]; Table 5, ESBL inhibitor 0 mcg
  Interpretation of zone as per CLSI recommendations: (R)
[6]; [13]
  Interpretation of zone as per CLSI recommendations: (R)
[6]; Table 6, ESBL inhibitor 0 mcg
  Interpretation of zone as per CLSI recommendations: (R)
[6]; [14]
  Interpretation of zone as per CLSI recommendations: (R)
[6]; with Clavulanic acid 10 mcg
  Zone of Inhibition: Nil
[7]; with Tazobactam 4 mcg
  MIC: >64 µg/mL
[7]; with Tazobactam 8 mcg
  MIC: >64 µg/mL
[7]; Escherichia coli, B89, 20 h, Tazobactam 0 mcg (antibiotic alone), read-out: MIC
  MIC: > 128 µg/mL
[8]; with Tazobactam 4 mcg
  MIC: >64 µg/mL
[8]; with Tazobactam 8 mcg
  MIC: >64 µg/mL
[8]; Enterobacter cloacae, M20, 20 h, Tazobactam 0 mcg (antibiotic alone), read-out: MIC
  MIC: > 128 µg/mL
[9]; Tazobactam 0 mcg (antibiotic alone)
  MIC: > 128 µg/mL
[9]; with Tazobactam 4 mcg
  MIC: > 64 µg/mL
[9]; with Tazobactam 8 mcg
  MIC: > 64 µg/mL
[10]; Escherichia coli, 20 h, Tazobactam 0 mcg (antibiotic alone), read-out: MIC
  MIC: > 128 µg/mL
[10]; with Tazobactam 4 mcg
  MIC: >64 µg/mL
[10]; with Tazobactam 8 mcg
  MIC: >64 µg/mL
[11]; with Tazobactam 4 mcg
  MIC: >64 µg/mL
[11]; with Tazobactam 8 mcg
  MIC: >64 µg/mL
[11]; Escherichia coli, 7MP, 20 h, Tazobactam 0 mcg (antibiotic alone), read-out: MIC
  MIC: > 128 µg/mL
